Assay results from PubChem BioAssay AID652241 (Broad Institute, 2013).
Results filed as inconclusive are left out. Activity calls are given as the source filed them.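 Rule for the calls: active = fitted curve reaches activity 50 in the expected rising direction at or below the top valid tested dose; inconclusive = no clear call, values can overlap the other calls; inactive = activity in the wrong direction, and the rest.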

Target: Virion infectivity factor (Human immunodeficiency virus type 1 group M subtype B (isolate BH10)) + Virion infectivity factor (Human immunodeficiency virus type 1 group M subtype B (isolate BRU/LAI)) + Virion infectivity factor (Human immunodeficiency virus type 1 group M subtype B (isolate PCV12)) + Virion infectivity factor (Human immunodeficiency virus type 1 group M subtype B (isolate HXB2)) (UniProt P69720+P69721+P69722+P69723)
Test: dose-dependent disruption of HIV Vif self-association – imaging, HEK293T, cherry-picks, dose response (AID 652241);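 note: imaged cell signal that rises when Vif self-association is disrupted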
Settings: HEK293T Vif multimerization imaging, 24 h

| Structure (SMILES) | AC50 |
| --- | --- |
| O=C(CCCCCn1c(=S)[nH]c2ccc(N3CCOCC3)cc2c1=O)NCc1ccccc1Cl | 6.23 µM |
| COc1cc(NC(=O)c2ccc(-c3csc(C)n3)cc2)c(OC)cc1Cl | 10.3 µM |
| COc1ccc(CC(=O)Nc2ccc(-c3noc(-c4cc(OC)c(OC)c(OC)c4)n3)cc2)cc1 | 13 µM |
| COC(=O)c1ccc(NCc2cc(O)ccc2O)cc1O | 10.9 µM |
| Cc1nnc2ccc(-c3ccc(NS(=O)(=O)c4ccc(Cl)s4)cc3)nn12 | 14.5 µM |
| COc1ccc(-c2cc(C(F)(F)F)n3nc(C(=O)NCc4ccco4)c(Cl)c3n2)cc1 | 8.52 µM |
| COc1ccc(-c2nc3cnccn3c2NC2CCCCC2)cc1-c1cccc(Cl)c1 | 14.5 µM |
| COc1ccccc1C1C2=C(COC2=O)Nc2cc3c(cc21)OCO3 (centres undefined) | 1.99 µM |
| COC(=O)c1ccc(NCc2cc(O)ccc2O)cc1 | 5.96 µM |
| C=CCNc1ncnc2c1ncn2C1OC(CO)C(O)C1O (centres undefined) | 5.47 µM |
| FC(F)(F)c1nnc2c3ccccc3c(Cl)nn12 | 12.5 µM |
| CC(C)OC(=O)c1ccc(NCc2cc(O)ccc2O)cc1Cl | 5 µM |
| COc1ccc2cc(-c3cc(C(=O)OCC(=O)NC4CCS(=O)(=O)C4)c4ccccc4n3)ccc2c1 (centres undefined) | 14.7 µM |
| COc1ccc(NC(=O)C2(C)Cc3c(-c4cccc(NC(C)=O)c4)ccnc3O2)cn1 (centres undefined) | 8.99 µM |
| Cc1nnc2ccc(-c3cccc(NS(=O)(=O)c4cc(F)ccc4F)c3)nn12 | 10.7 µM |
| CCc1ccc2[nH]c3nc(SCC(=O)NNC(=O)c4ccc(C(C)(C)C)cc4)nnc3c2c1 | 7.22 µM |
| COc1cc2ccccc2cc1C(=O)Nc1ccc(Cl)cn1 | 13 µM |
| CCCSc1ccc2nc(NC(=O)OC)[nH]c2c1 | 15.4 µM |
| COc1ccc2nc(N3C(=O)C(O)=C(C(=O)c4ccco4)C3c3ccccc3OC)sc2c1 (centres undefined) | > 19.5 µM (inactive) |
| CCN(CC)c1ccc2cc(C(N)=O)c(=O)oc2c1 | > 19.5 µM (inactive) |
| Cc1nnc2ccc(-c3cccc(NS(=O)(=O)c4ccccc4Cl)c3)nn12 | 14.1 µM |
| Cc1ccc2c(COC(=O)c3ccccc3OC(F)F)cc(=O)oc2c1 | 12 µM |
| CCc1ccc(N2C(=O)/C(=C/c3cccs3)N(CC(=O)OC)C2=S)cc1 | 18.8 µM |
| Nc1c(C(=O)Nc2nc3ccccc3s2)sc2nc(-c3cccs3)ccc12 | 7.57 µM |
| Cc1cc(C)cc(NC(=O)CCc2nc3sc4c(c3c(=O)[nH]2)CCCC4)c1 | 14.6 µM |
| Cc1ccc(NC(=O)/C=C/c2ccco2)nc1 | 8.31 µM |

Same assay, conditions: HEK293T Vif multimerization imaging, 24 h; at 2.1 µM (top of the series)

| Structure (SMILES) | activity, higher = inhibition |
| --- | --- |
| OCC1OC(n2cnc3c(NCc4ccco4)ncnc32)C(O)C1O (centres undefined) | inactive |

Same assay, conditions: HEK293T Vif multimerization imaging, 24 h; at 6.8 µM (top of the series)

| Structure (SMILES) | activity, higher = inhibition |
| --- | --- |
| COc1cc2c3nnc(-c4ccc(F)cc4)c-3cn(Cc3ccc(F)cc3)c2cc1OC | inactive |
| NC(c1csc(Nc2ccc(C(=O)c3ccccc3)cc2)n1)C1CCCCC1 (centres undefined) | inactive |
| Cc1nc(C)n(CC(=O)N2CCCC(C(=O)c3ccc(C(F)(F)F)cc3)C2)n1 (centres undefined) | inactive |

Same assay, conditions: HEK293T Vif multimerization imaging, 24 h; at 19.5 µM (top of the series)

| Structure (SMILES) | activity, higher = inhibition |
| --- | --- |
| COc1cc(OC)cc(C(=O)N[C@H](C(=O)Nc2ccc3c(c2)OCO3)C(C)C)c1 | inactive |
| CCNC(=O)[C@H]1O[C@@H](n2cnc3c(N)nc(NCCc4ccc(CCC(=O)O)cc4)nc32)[C@H](O)[C@@H]1O | inactive |
| O=C(CCN1CCOCC1)Nc1ccc(Cl)cc1 | inactive |
| CC1CN(S(=O)(=O)c2ccc(C(=O)NCCCn3ccnc3)cc2)CC(C)O1 (centres undefined) | inactive |
| COc1ccc(-c2coc3c(C(=O)Nc4cccc(C(C)=O)c4)cccc23)c(C)c1 | inactive |
| COC(CNC(=O)C1CCN(C(=O)c2cc3oc(C)cc3n2Cc2c(F)cccc2Cl)CC1)OC | inactive |
| COc1ccc(-c2cc(C(=O)Nc3ccc4c(c3)OCO4)no2)cc1 | inactive |
| Cc1ccc(S(=O)(=O)c2nc(-c3ccccc3Cl)oc2N(C)C2CCN(C)CC2)cc1 | inactive |
| Cc1ccc(N(C)S(=O)(=O)c2ccc(-c3ccc(=O)[nH]n3)s2)cc1C | inactive |
| O=C(CSc1nnc(CNc2ccc(F)cc2)o1)c1ccccc1 | inactive |
| CC1Cc2ccccc2N1C(=O)COC(=O)c1ccccc1NCCO (centres undefined) | inactive |
| S=C(NC1CC1)N1CCc2ccccc2C1 | inactive |
| COc1ccc(C(=O)Nc2c(Cl)cc(Cl)cc2C(=O)N2CCOCC2)cc1 | inactive |
| O=C(NNC(=O)c1cc2ccccc2oc1=O)c1ccccc1 | inactive |
| COc1ccccc1Oc1coc2cc(OCC(N)=O)ccc2c1=O | inactive |
| OC(CNCc1ccccc1Cl)COc1ccc(F)cc1 (centres undefined) | inactive |
| COc1ccc(-c2csc(-c3cccnc3)n2)cc1C | inactive |
| CCCCCCOC(=O)C(C#N)c1nc2ccccc2nc1N1CCOCC1 (centres undefined) | inactive |
| CCOC(=O)Cc1csc(NC(=O)CSc2nnnn2-c2ccc(CC)cc2)n1 | inactive |
| CSc1ccc(CN(C)CC(=O)NCCc2ccccc2)cc1 | inactive |
| O=C(c1cc(-c2ccncc2)nc2ccccc12)N1CCN(Cc2ccccc2)CC1 | inactive |
| COc1cccc(N2CCN(S(=O)(=O)c3cc4c(cc3C)N(C)CCO4)CC2)c1 | inactive |

| Structure (SMILES) | activity, higher = inhibition |
| --- | --- |
| CCN1CCc2c(sc(N)c2C(N)=O)C1 | inactive |
| COc1ccc(-c2nc(-c3ccccn3)nc(N3CCN(C)CC3)c2C#N)cc1 | inactive |
| CCCOCCOC(=O)c1[nH]c2c(c1C)C(=O)CC(c1cc(OC)ccc1OC)C2 (centres undefined) | inactive |
| COCCNCC(=O)Nc1nc(C)cs1 | inactive |
| CCCCn1c(-c2ccncc2)nc2c1c(=O)[nH]c(=O)n2CC(C)C | inactive |
| CCOc1cccc(C(=O)Nc2ccc3oc(Cc4ccc(Cl)cc4)nc3c2)c1 | inactive |
| Cc1cc(S(=O)(=O)N2CCOCC2)ccc1OCC(=O)NCCN1CCOCC1 | inactive |
| Cc1ccc2c(c1)C1CN(C)CCC1N2S(=O)(=O)c1cccc(C(F)(F)F)c1 (centres undefined) | inactive |
| Cc1ncoc1C(=O)N1CCCC(C(=O)c2ccc(Oc3ccccc3)cc2)C1 (centres undefined) | inactive |
| CCN(CC(=O)Nc1c(F)cccc1F)C(=O)c1cccc(-n2cccc2)c1 | inactive |
| Cc1c(NC(=O)c2cc3ccccc3oc2=O)c(=O)n(-c2ccccc2)n1C | inactive |
| COc1cc(NC(=O)c2ccc(C)cc2C)ccc1NC(=O)c1cccs1 | inactive |
| O=C(CSc1ncccn1)NC(=O)Nc1ccc2c(c1)OCCO2 | inactive |
| Cc1ccc(Nc2nc(N)nc(CSc3nnc(-c4ccncc4)o3)n2)cc1 | inactive |
| COc1ccc(OC)c(NC(=O)c2nc(-c3ccccc3)oc2C)c1 | inactive |
| O=c1[nH]c(=O)n(Cc2ccco2)c2c1C(C(F)(F)F)(C(F)(F)F)N=C(c1ccco1)N2 | inactive |
| Cc1ccc(S(=O)(=O)NC(=O)Nn2c(C)nnc2C)cc1 | inactive |
| Cc1nnc(NC(=O)CSc2nnc(NC(=O)C(C)(C)C)s2)s1 | inactive |
| CCN1C(=O)NC(c2ccccc2)C1=O (centres undefined) | inactive |
| CCn1c(CC(=O)Nc2ccccc2)nnc1SCC(=O)Nc1nnc(C)s1 | inactive |
| CCOc1ccc(NC(=O)CN(C)C(=O)c2cc(S(=O)(=O)N3CCCCC3)ccc2Cl)cc1OCC | inactive |
| COc1cc2[nH]c(=O)n(CCCC(=O)NC3CCCCC3)c(=O)c2cc1OC | inactive |

| Structure (SMILES) | activity, higher = inhibition |
| --- | --- |
| CN1CCN(C(=S)c2ccc(OCC(=O)Nc3cccc(C(F)(F)F)c3)cc2)CC1 | inactive |
| O=C(CCCn1c(=S)[nH]c2ccccc2c1=O)N1CCN(c2cccc(Cl)c2)CC1 | inactive |
| O=C(O)CCCCn1c(SCc2ccccc2Cl)nc2ccsc2c1=O | inactive |
| CCC1(CC)NC(=O)N(CC(=O)Nc2ccc(OCc3ccccc3)cc2)C1=O | inactive |
| O=S(=O)(Nc1nc2ccccc2nc1NCc1ccco1)c1ccc(Cl)cc1 | inactive |
| COc1ccc(N=C2NC(=O)S/C2=C\c2ccc(N(C)C)cc2)cc1 | inactive |
| O=C(c1ccc2c(c1)OCO2)N(CC1CCCO1)C1(C(=O)NC2CCCC2)CCCCC1 (centres undefined) | inactive |
| CCn1c(/C=C/c2ccc(F)cc2)nc2ccccc2c1=O | inactive |
| CCOC(=O)C1CCCN(CC(=O)Nc2c(C(=O)OC)[nH]c3ccc(Cl)cc23)C1 (centres undefined) | inactive |
| O=C1c2ccccc2C(Nc2ccc(S(=O)(=O)N3CCOCC3)cc2)N1c1ccccn1 (centres undefined) | inactive |
| O=C(Cn1ncc2c3ccccc3n(Cc3cccc(Cl)c3)c2c1=O)N1CCC2(CC1)OCCO2 | inactive |
| COc1cc(CNCc2ccccc2)c(Br)cc1OC1CCCC1 | inactive |
| CCN1CCN(c2cc(=O)n(-c3cc(Cl)ccc3C)c(=O)[nH]2)CC1 | inactive |
| Cc1cc(C(=O)Nc2c(F)c(F)c(F)c(F)c2F)n(-c2ccccc2)n1 | inactive |
| Cc1cc(OCC(C)C)ccc1/C(O)=C1/C(=O)C(=O)N(Cc2cccnc2)C1c1ccncc1 (centres undefined) | inactive |
| NC(=O)c1sc2nc(-c3ccccc3)ccc2c1N | inactive |
| CCOC(=O)C1CCN(S(=O)(=O)c2cccc(-c3cn4cc(C)ccc4n3)c2)CC1 | inactive |
| Cc1ccc(C(=O)NC(CCc2ccccc2)C(=O)O)cc1 (centres undefined) | inactive |
| CC(C)C(NC(=O)c1ccccc1NC(=O)C(C)(C)C)C(=O)N1CCOCC1 (centres undefined) | inactive |
| CC(O)CN(C)CC/C=C1/c2ccccc2CSc2ccccc21 (centres undefined) | inactive |
